System: ovarian cancer cell lines (OV-CAR)
Assay: Western blot of DSG2 in OV-CAR cell supernatants after cisplatin treatment
Assay type: cell-based
Experimental: FIGS. 5A, 5B and 5C (collectively FIGS. 5A-5C) show the effect of DSG2 expression in response to cisplatin.
Western Blot. Mini-PROTEAN precast gels (BIO-RAD, Hercules, CA) with 4-15% gradient polyacrylamide are used. A total of 1 μg protein mixed with 2× loading buffer (10 mM Tris-HCl, pH 6.8, 200 mM DTT, 4% SDS, 20% glycerol, 0.2% bromophenol blue) is loaded per lane. Samples are either boiled (B) for 5 min or loaded unboiled (UB). The following running buffer is used: 25 mM Tris, pH 8.3, 0.192 M glycine, 0.1% SDS. After electrophoresis, proteins are transferred to nitrocellulose and incubated with the corresponding antibodies. For detection of DSG2 binding, filters are incubated with recombinant human DSG2 protein and anti-DSG2 antibody 6D8 as described (Wang et al. Nat Med. 2011; 17(1):96-104). Other Western blots use a primary mouse monoclonal antibody followed by an anti-mouse IgG HRP conjugate. Selected Western blots are scanned and quantified using the ImageJ 1.32 software (National Institutes of Health, Bethesda, MD).
In this Example, a potential mode of chemoresistance was investigated, DSG2 protein levels were determined in cancer cells after treatment with cisplatin, a commonly used platinum-based therapeutic used as first-line treatment of ovarian cancer and its metastases.
Cell supernatants from ovarian cancer cell lines (OV-CAR) were first interrogated with monoclonal and polyclonal anti-DSG2 antibodies to confirm specificity of the antibodies. […] Within 2 days of cisplatin treatment, the presence of cleaved DSG2, a product of DSG2 shedding, was detected in cell supernatant (FIGS. 5A and 5B). Quantitative analysis of the blot intensity indicated DSG2 peaking at 2 days after cisplatin treatment.

In the case of N.N.[Cl][Pt][Cl] [cisplatin], the “time of DSG2 peak by quantitative analysis of blot intensity” value (OV-CAR cells, after cisplatin treatment, ImageJ, day 0 as control) is reported as 2 days, the “time until cleaved DSG2 (product of DSG2 shedding) was detected in cell supernatant” value (OV-CAR cells, after cisplatin treatment, Western blot) is reported as no more than 2 days and the “DSG2 response of ovarian cancer cells to treatment” value (cisplatin treatment) is reported as “upregulated and shed in increased amounts”.
